The values below come from patent US10710988B2, “Piperazine derivative” (Astellas Pharma Inc., priority 2016, dated 2020).

What all share (assay type): cell-based
Experiment [1] concerns the target T1, rat MC4 receptor (Rattus norvegicus, UniProt P70596).
T1 construct: expressed in transfected cells; host or cells: FreeStyle 293-F cells (transient, electroporation)
The experiment can be described thus: Rat MC4 receptor activation, cAMP production in cells transiently expressing the receptor. Conditions: FreeStyle 293-F cells expressing rat MC4 receptor, α-MSH maximum = 100%. The source says: (1) Construction of Rat MC4 Receptor-Expressing Vector
A rat MC4 receptor gene (GenBank Accession No.: NM_013099.3) was introduced into an expression vector pcDNA™ 3.1N/V5-His TOPO (registered trademark) (Thermo Fisher Scientific Inc.).
(2) Construction of Cells Transiently Expressing Rat MC4 Receptor
(§1) An expression vector for a rat MC4 receptor was introduced into FreeStyle™ 293-F cells (Thermo Fisher Scientific Inc.). For the introduction, electroporation was employed. That is, 1×10^7 FreeStyle™ 293-F cells were suspended in 80 μL of an electroporation buffer (Thermo Fisher Scientific Inc.), and 20 μg of the expression vector was added thereto. The resultant was put into a cuvette (OC-100 Processing Assembly, MaxCyte, Inc.) and electroporated with MaxCyte STX (registered trademark) (MaxCyte, Inc.). The cells were cultured for a day, suspended in a Cell Banker (registered trademark) 1 (TAKARA BIO INC. or JUJI FIELD Inc.), and stored frozen until they were used.
(§2) (3) Measurement of Amount of cAMP Production
Measurement was carried out in accordance with the attached instructions, using a LANCE (registered trademark) Ultra cAMP Kit (PerkinElmer, Inc.). That is, after dissolution in DMSO, the test compound (a final concentration of 1 pM to 30 μM) diluted with an assay buffer (Hank's balanced salt solution, 5 mM HEPES, 0.5 mM IBMX, 0.1% bovine serum albumin, pH 7.4), or α-MSH (Bachem Inc., a final concentration of 1 pM to 30 μM) was added to OptiPlate-384 (PerkinElmer, Inc.). Furthermore, the suspension of the cells transiently expressing the rat MC receptor that was prepared using the assay buffer was added thereto at 1,000 cells/well, and then left to stand at room temperature for about 1 hour. Thereafter, an Eu-cAMP tracer solution and an ULight™-anti-cAMP solution were added thereto, and the resulting solution was left to stand at room temperature for about 1 hour. The amount of cAMP was calculated using EnVision (registered trademark) (PerkinElmer Inc).
For the agonistic activity, an efficacy (EC50 (μM)) was calculated by a non-linear regression method with a Sigmoid-Emax model, by defining the maximum reaction using α-MSH as 100% and the reaction using a vehicle alone as 0%, respectively.

In experiment [2] the target is T2, human MC3 receptor (Homo sapiens, UniProt P41968).
T2 construct: expressed in transfected cells; host or cells: FreeStyle 293-F cells (transient, electroporation)
T2 sequence (P41968 whole entry): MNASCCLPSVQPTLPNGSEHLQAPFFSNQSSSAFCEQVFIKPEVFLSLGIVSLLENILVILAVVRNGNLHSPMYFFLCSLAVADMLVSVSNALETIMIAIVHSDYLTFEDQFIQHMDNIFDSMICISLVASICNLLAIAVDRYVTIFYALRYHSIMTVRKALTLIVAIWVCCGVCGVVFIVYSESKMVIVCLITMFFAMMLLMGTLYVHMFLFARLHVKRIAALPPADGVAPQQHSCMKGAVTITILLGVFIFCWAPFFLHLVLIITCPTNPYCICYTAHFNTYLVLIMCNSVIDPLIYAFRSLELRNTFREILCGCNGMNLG
Kind of experiment: Human MC3 receptor activation, cAMP production in cells transiently expressing the receptor. To be noted: FreeStyle 293-F cells expressing human MC3 receptor, α-MSH maximum = 100%.
Source text: (§3) (1) Construction of Human MC Receptor-Expressing Vector
(§4) A human MC4 receptor gene (GenBank Accession No.: NM_005912.2), a human MC1 receptor gene (GenBank Accession No.: NM_002386.3), or a human MC3 receptor gene (GenBank Accession No.: NM_019888.3) was introduced into an expression vector pcDNA™ 3.1N/V5-His TOPO (registered trademark) (Thermo Fisher Scientific Inc).
(§5) (2) Construction of Cells Transiently Expressing Human MC Receptor
as §1, with “a human MC4, MC1, or MC3” for “a rat MC4”, “Scientific Inc., product number: R790-07).” for “Scientific Inc.).”, “an Electroporation Buffer” for “an electroporation buffer”, “Scientific Inc., product number: B201-100),” for “Scientific Inc.),”, “FIELD Inc., product number: BLC-1),” for “FIELD Inc.),”
as §2
(§6) Measurement was carried out by using a LANCE (registered trademark) Ultra cAMP Kit (PerkinElmer, Inc.) in accordance with the attached instructions. That is, after dissolution in DMSO, the test compound (a final concentration of 1 pM to 30 μM) diluted with an assay buffer (Hank's balanced salt solution, 5 mM 4-(2-hydroxyethyl)-1-piperazineethanesulfonic acid (HEPES), 0.5 mM 3-isobutyl-1-methylxanthine (IBMX), 0.1% bovine serum albumin, pH 7.4), or α-MSH (Bachem Inc., a final concentration of 1 pM to 30 μM) was added to OptiPlate-384 (PerkinElmer, Inc.). Furthermore, the suspension of the cells transiently expressing the human MC4, MC1, or MC3 receptor prepared using the assay buffer was added thereto at 1,000 cells/well, and then left to stand at room temperature for about 1 hour. Thereafter, an Eu-cAMP tracer solution and an ULight™-anti-cAMP solution were added thereto, and then the resulting solution was left to stand at room temperature for about 1 hour. The amount of cAMP was calculated using EnVision (registered trademark) (PerkinElmer Inc.).
(§7) For the agonistic activity, the efficacy (EC50 (μM)) was calculated by a non-linear regression method with a Sigmoid-Emax model, by defining the maximum reaction using α-MSH as 100% and the reaction using the vehicle alone as 0%, respectively.

For experiment [3], the target named is T3, human MC4 receptor (Homo sapiens, UniProt P32245).
T3 construct: expressed in transfected cells; host or cells: FreeStyle 293-F cells (transient, electroporation)
T3 sequence (P32245 whole entry): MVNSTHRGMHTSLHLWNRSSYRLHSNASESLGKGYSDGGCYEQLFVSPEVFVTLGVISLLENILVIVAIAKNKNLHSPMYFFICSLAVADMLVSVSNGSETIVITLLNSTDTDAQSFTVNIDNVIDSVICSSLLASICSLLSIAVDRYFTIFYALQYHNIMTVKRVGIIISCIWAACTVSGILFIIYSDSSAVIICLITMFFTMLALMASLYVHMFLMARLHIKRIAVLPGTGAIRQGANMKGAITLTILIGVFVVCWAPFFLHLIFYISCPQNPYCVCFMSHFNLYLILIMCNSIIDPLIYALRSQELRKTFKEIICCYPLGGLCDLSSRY
The experiment can be described thus: Human MC4 receptor activation, cAMP production in cells transiently expressing the receptor. To be noted: FreeStyle 293-F cells expressing human MC4 receptor, α-MSH maximum = 100%.
Source text: as §3, §4, §5
as §1, with “a human MC4, MC1, or MC3” for “a rat MC4”, “Scientific Inc., product number: R790-07).” for “Scientific Inc.).”, “an Electroporation Buffer” for “an electroporation buffer”, “Scientific Inc., product number: B201-100),” for “Scientific Inc.),”, “FIELD Inc., product number: BLC-1),” for “FIELD Inc.),”
as §2, §6, §7

The target of experiment [4] is T4, human MC1 receptor (Homo sapiens, UniProt Q01726).
T4 construct: expressed in transfected cells; host or cells: FreeStyle 293-F cells (transient, electroporation)
T4 sequence (Q01726 whole entry): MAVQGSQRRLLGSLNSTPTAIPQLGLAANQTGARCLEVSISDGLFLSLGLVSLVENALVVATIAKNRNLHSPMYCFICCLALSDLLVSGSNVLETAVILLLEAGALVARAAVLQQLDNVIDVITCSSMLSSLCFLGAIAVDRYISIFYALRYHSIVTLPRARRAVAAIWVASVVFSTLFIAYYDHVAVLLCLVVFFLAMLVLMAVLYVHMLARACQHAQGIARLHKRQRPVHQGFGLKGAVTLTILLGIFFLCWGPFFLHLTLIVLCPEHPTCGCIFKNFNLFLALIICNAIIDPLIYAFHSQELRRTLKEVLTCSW
The experiment can be described thus: Human MC1 receptor activation, cAMP production in cells transiently expressing the receptor. Conditions: FreeStyle 293-F cells expressing human MC1 receptor, α-MSH maximum = 100%.
Source text: as §3, §4, §5
as §1, with “a human MC4, MC1, or MC3” for “a rat MC4”, “Scientific Inc., product number: R790-07).” for “Scientific Inc.).”, “an Electroporation Buffer” for “an electroporation buffer”, “Scientific Inc., product number: B201-100),” for “Scientific Inc.),”, “FIELD Inc., product number: BLC-1),” for “FIELD Inc.),”
as §2, §6, §7

Molecules are shown by their SMILES. Where a name gives a salt, the structure may show the parent alone.

T1 sequence (P70596 whole entry): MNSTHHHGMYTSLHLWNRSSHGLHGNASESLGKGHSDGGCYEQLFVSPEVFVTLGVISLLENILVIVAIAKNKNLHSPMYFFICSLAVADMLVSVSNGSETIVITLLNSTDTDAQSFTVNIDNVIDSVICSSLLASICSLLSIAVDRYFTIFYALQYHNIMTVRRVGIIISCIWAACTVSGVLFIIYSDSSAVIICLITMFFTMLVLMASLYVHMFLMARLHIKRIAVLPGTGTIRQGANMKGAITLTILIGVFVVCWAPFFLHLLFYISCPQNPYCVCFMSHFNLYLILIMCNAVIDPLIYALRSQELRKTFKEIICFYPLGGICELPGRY

Take `CC(=O)N[C@@H](Cc1ccc(Cl)cc1)C(=O)N1CCN(C(=O)[C@@H]2CN(C(C)(C)C)C[C@H]2c2ccc(F)cc2F)[C@@H](C)C1` [Example 7]: the EC50 in experiment [1] was 15 nM; in experiment [2] it was 4400 nM; in experiment [3], 77 nM; in experiment [4], 680 nM.
Consider `C[C@H]1CN(C(=O)[C@@H](NC(=O)C2CC2)C2CCCCC2)CCN1C(=O)[C@@H]1CN(C(C)(C)C)C[C@H]1c1ccc(F)cc1F` [Example 9], for which a half-maximal effect in experiment [3] (EC50) was put at 89 nM.
For `CC(=O)N(C)[C@H](C(=O)N1CCN(C(=O)[C@@H]2CN(C(C)(C)C)C[C@H]2c2ccc(F)cc2F)[C@@H](C)C1)C1CCCCC1` [Example 10], the EC50 in experiment [3] worked out at 12 nM.
On to `COC[C@H]1CN(C(=O)[C@H](CC(C)C)NC(C)=O)CCN1C(=O)C1CN(C(C)(C)C)CC1c1ccc(Br)cc1F` (stereo partly shown) [Example 12], for which the EC50 in experiment [3] worked out at 14 nM.
Same read-out and setting: for `CCC(=O)N[C@@H](CC(C)(C)C)C(=O)N1CCN(C(=O)[C@@H]2CN(C3CCOCC3)C[C@H]2c2ccc(Cl)cc2F)CC12CC2` [Example 13] the value was 34 nM; for `CC(=O)N[C@H](C(=O)N1CCN(C(=O)[C@@H]2CN(C(C)(C)C)C[C@H]2c2ccc(F)cc2F)[C@@H](C)C1)C1CCCC1` [Example 15], 220 nM; for `CC(=O)N[C@@H](Cc1cccc(F)c1)C(=O)N1CCN(C(=O)[C@@H]2CN(C(C)(C)C)C[C@H]2c2ccc(F)cc2F)[C@@H](C)C1` [Example 17], 40 nM.
The same measure, in the same setting: the figure for `CC(=O)N[C@@H](CC1CCC(C)(C)CC1)C(=O)N1CCN(C(=O)[C@@H]2CN(C(C)(C)C)C[C@H]2c2ccc(F)cc2F)[C@@H](C)C1` [Example 18, N-[(2S)-1-[(3S)-4-{[(3 S,4R)-1-tert-butyl-4-(2,4-difluorophenyl)pyrrolidin-3-yl]carbonyl}-3-methylpiperazin-1-yl]-3-(4,4-dimethylcyclohexyl)-1-oxopropan-2-yl]acetamide monohydrochloride] is 62 nM; for `CC(=O)N[C@@H](CC1CCC(F)(F)CC1)C(=O)N1CCN(C(=O)[C@@H]2CN(C(C)(C)C)C[C@H]2c2ccc(F)cc2F)[C@@H](C)C1` [Example 19] it is 380 nM.
Still for that read-out and setting: the figure for `CCC(=O)N[C@@H](CC(C)(C)C)C(=O)N1CCN(C(=O)[C@@H]2CN(C3CCOCC3)C[C@H]2c2ccc(Cl)cc2F)[C@@H](C)C1` [Example 21] is 130 nM; for `CC(=O)N[C@@H](Cc1ccccc1Cl)C(=O)N1CCN(C(=O)C2CN(C(C)(C)C)CC2c2cc(F)c(Cl)c(F)c2)[C@@H](C)C1` (stereo partly shown) [Example 22] it is 180 nM.
Turning to `CC(=O)N[C@@H](CC(C)(C)C)C(=O)N1CCN(C(=O)C2CN(C(C)(C)C)CC2c2ccc(Cl)cn2)[C@@H](C)C1` (stereo partly shown) [Example 23], the EC50 came out at 4.8 nM in experiment [1], 450 nM in experiment [2], 23 nM in experiment [3] and 870 nM in experiment [4].
In the same order, the values of `CC(=O)N[C@@H](CC(C)(C)C)C(=O)N1CCN(C(=O)[C@@H]2CN(C(C)C)C[C@H]2c2ccc(F)cc2F)[C@@H](C)C1` [Example 24, N-{(2S)-1-[(3S)-4-{[(3S,4R)-4-(2,4-difluorophenyl)-1-isopropylpyrrolidin-3-yl]carbonyl}-3-methylpiperazin-1-yl]-4,4-dimethyl-1-oxopentan-2-yl}acetamide monohydrochloride] are 46 nM, 6400 nM, 78 nM and 1500 nM.
Turning to `CC(=O)N[C@@H](CC(C)(C)C)C(=O)N1CCN(C(=O)[C@@H]2CN(C3CCCCC3)C[C@H]2c2ccc(F)cc2F)[C@@H](C)C1` [Example 25], the EC50 in experiment [3] was 120 nM.
Same read-out and setting: for `CC(=O)N[C@@H](CC(C)(C)C)C(=O)N1CCN(C(=O)[C@@H]2CN(C)C[C@H]2c2ccc(F)cc2F)[C@@H](C)C1` [Example 26] the value was 5000 nM; for `CC(=O)N[C@@H](CC(C)(C)C)C(=O)N1CCN(C(=O)[C@@H]2CN(CC3CC3)C[C@H]2c2ccc(F)cc2F)[C@@H](C)C1` [Example 27], 1000 nM; for `C[C@H]1CN(C(=O)[C@H](Cc2ccccc2Cl)N(C)C)CCN1C(=O)[C@@H]1CN(C(C)(C)C)C[C@H]1c1ccc(F)cc1F` [Example 28, (2S)-1-[(3S)-4-{[(3 S,4R)-1-tert-butyl-4-(2,4-difluorophenyl)pyrrolidin-3-yl]carbonyl}-3-methylpiperazin-1-yl]-3-(2-chlorophenyl)-2-(dimethylamino)propan-1-one dihydrochloride], 5.5 nM.
The compound `CC(C)C[C@H](NS(C)(=O)=O)C(=O)N1CCN(C(=O)[C@@H]2CN(C3CCOCC3)C[C@H]2c2ccc(Cl)cc2F)[C@@H](C)C1` [Example 29, N-{(2S)-1-[(3S)-4-{[(3S,4R)-4-(4-chloro-2-fluorophenyl)-1-(tetrahydro-2H-pyran-4-yl)pyrrolidin-3-yl]carbonyl}-3-methylpiperazin-1-yl]-4-methyl-1-oxopentan-2-yl}methanesulfonamide monohydrochloride] yielded an EC50 in experiment [3] of 280 nM.
As for `C[C@H]1CN(C(=O)[C@@H](N)C2CCCCC2)CCN1C(=O)[C@@H]1CN(C(C)(C)C)C[C@H]1c1ccc(F)cc1F` [Example 30, (2S)-2-amino-1-[(3S)-4-{[(3S,4R)-1-tert-butyl-4-(2,4-difluorophenyl)pyrrolidin-3-yl]carbonyl}-3-methylpiperazin-1-yl]-2-cyclohexylethanone dihydrochloride], in experiment [3], the EC50 stood at 1800 nM.
